Among the data in patent US6127380A, “4-aminoalkoxy-1H-benzoimidazoles” (American Home Products Corporation, priority 1998, dated 2000) are IC50 and Ratio values, retold here.

Read-outs that look alike come from different tables or passages of the source.

Test [1] addresses T1, dopamine autoreceptor (D2) (Rattus norvegicus, UniProt P61169).
T1 construct: homogenized rat striatal brain tissue; from tissue; host or cells: rat striatum, homogenate
As to the kind of experiment: Affinity for the dopamine autoreceptor, 3H-quinpirole binding in homogenized rat striatal brain tissue (D2 Quin.). The method, then:
Affinity for the dopamine autoreceptor was established by a modification of the standard experimental test procedure of Seemen and Schaus, European Journal of Pharmacology 203: 105-109, 1991, wherein homogenized rat striatal brain tissue is incubated with ^3 H-quinpirole (Quin.) and various concentrations of test compound, filtered and washed and counted in a Betaplate scintillation counter.

In the next test the target is T2, dopamine D-2 receptor (Rattus norvegicus, UniProt P61169).
T2 construct: from tissue; host or cells: limbic brain tissue, homogenate
The experiment in a line: Affinity for the dopamine D-2 receptor, 3H-spiroperidol binding in homogenized limbic brain tissue (D2 Spiper). To be noted: for Ratio: IC50 D2 Spiper / IC50 D2 Quin. (LowAg/HighAg, predicts intrinsic activity). The procedure:
High affinity for the dopamine D-2 receptor was established by the standard experimental test procedure of Fields, et al., Brain Res., 136, 578 (1977) and Yamamura et al., eds., Neurotransmitter Receptor Binding, Raven Press, N.Y. (1978) wherein homogenized limbic brain tissue is incubated with ^3 H-spiroperidol (Spiper.) and various concentrations of test compound, filtered and washed and shaken with Hydrofluor scintillation cocktail (National Diagnostics) and counted in a Packard 460 CD scintillation counter.

Setting [2] is: 3H-quinpirole, homogenized rat striatal brain tissue, read-out: IC50 (nM) D2 Quin.
Setting [3] is: 3H-spiroperidol, homogenized limbic brain tissue, read-out: IC50 (nM) D2 Spiper.

As usually defined, the IC50 is the concentration at which inhibition is half-maximal.

T2 sequence (P61169 whole entry): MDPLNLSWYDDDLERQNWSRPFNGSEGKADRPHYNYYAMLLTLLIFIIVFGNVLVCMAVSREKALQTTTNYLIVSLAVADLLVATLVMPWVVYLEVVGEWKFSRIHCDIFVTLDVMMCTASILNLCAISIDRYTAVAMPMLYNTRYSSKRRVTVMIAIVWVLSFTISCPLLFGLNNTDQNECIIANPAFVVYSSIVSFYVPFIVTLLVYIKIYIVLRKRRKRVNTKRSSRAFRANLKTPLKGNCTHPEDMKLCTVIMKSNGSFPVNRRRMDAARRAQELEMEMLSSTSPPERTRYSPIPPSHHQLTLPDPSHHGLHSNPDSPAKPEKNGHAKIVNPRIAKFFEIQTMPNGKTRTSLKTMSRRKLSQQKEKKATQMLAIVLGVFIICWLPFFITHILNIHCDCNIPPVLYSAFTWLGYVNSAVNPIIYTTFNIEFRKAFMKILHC
T1 sequence (P61169 whole entry): as above

Consider `Fc1ccc(CNCCOc2cccc3[nH]c(C(F)(F)F)nc23)cc1` [Example 16, (4-Fluoro-benzyl)-2[2-(2-trifluoromethyl-1H-benzoimidazol-4-yloxy)-ethyl]-amine], for which the figures for the 50% inhibitory concentration (IC50) (in test [1] (setting [2]); at dopamine D-2 receptor (setting [3])) were 0.74 nM and 49 nM, respectively. In addition, the Ratio on dopamine D-2 receptor was 66.2.

For the compound `FC(F)(F)c1nc2c(OCCNCCCc3ccccc3)cccc2[nH]1` [Example 18, (3-Phenyl-propyl)-[2-(2-trifluoromethyl-1H-benzoimidazol-4-yloxy)-ethyl]-amine], the 50% inhibitory concentration (IC50) in test [1] (setting [2]) was found to be 0.56 nM.

For the compound `Cc1ccc(CNCCOc2cccc3[nH]c(C(F)(F)C(F)(F)C(F)(F)F)nc23)cc1` [Example 12, (4-Methyl-benzyl)-{2-[2-(1,1,2,2,3,3,3-heptafluoro-propyl)-1H-benzoimidazol-4-yloxy]-ethyl}-amine], the 50% inhibitory concentration (IC50) in test [1] worked out at 5.12 nM. On dopamine D-2 receptor, the IC50 amounted to 118 nM and the Ratio was 23.0.

Turning to `FC(F)(F)c1nc2c(OCCCNCc3ccccc3)cccc2[nH]1` [Example 8, Benzyl-[3-(2-trifluoromethyl-1H-benzoimidazol-4-yloxy)-propyl]-amine], the results for the IC50 (in test [1] (setting [2]); at dopamine D-2 receptor (setting [3])) were 86.8 nM and 1460 nM, respectively. The Ratio on dopamine D-2 receptor is reported as 16.8.

In the case of `FC(F)(F)c1nc2c(OCCN3CCc4ccccc4C3)cccc2[nH]1` [Example 13], the IC50 was 8 nM in test [1] (setting [2]) and 314 nM at dopamine D-2 receptor (setting [3]). Moreover, the Ratio on dopamine D-2 receptor was 39.4.

Consider `FC(F)(F)C(F)(F)c1nc2c(OCCNCc3ccccc3)cccc2[nH]1` [Example 9, Benzyl-{2-[2-(1,1,2,2,2-pentafluoro-ethyl)-1H-benzoimidazol-4-yloxy]-ethyl}-amine], for which the IC50 in test [1] (setting [2]) amounted to 1.41 nM; at dopamine D-2 receptor (setting [3]) it was 41.9 nM. At dopamine D-2 receptor, the Ratio is 29.7.

As for `FC(F)(F)c1ccc(CNCCOc2cccc3[nH]c(C(F)(F)F)nc23)cc1` [Example 17, [2-(2-Trifluoromethyl-1H-benzoimidazol-4-yloxy)-ethyl]-(4-trifluoromethyl-benzyl)-amine], the 50% inhibitory concentration (IC50) in test [1] (setting [2]) was 1.16 nM; at dopamine D-2 receptor (setting [3]) it was 87 nM. Besides, the Ratio on dopamine D-2 receptor was 75.0.

As for `Cc1nc2c(OCCNCc3ccccc3)cccc2[nH]1` [Example 2, Benzyl-[2-(2-methyl-1H-benzoimidazol-4-yloxy)-ethyl]-amine], the concentration for half-maximal inhibition (IC50) in test [1] (setting [2]) was found to be 8.85 nM; on dopamine D-2 receptor (setting [3]), 339 nM. Further, at dopamine D-2 receptor, the Ratio is 38.3.

As for `FC(F)(F)c1nc2c(OCCNCc3ccccc3)cc(Cl)cc2[nH]1` [Example 14, Benzyl-[2-(6-chloro-2-trifluoromethyl-1H-benzoimidazol-4-yloxy)-ethyl]-amine], the 50% inhibitory concentration (IC50) amounted to 1.42 nM in test [1] (setting [2]) and 151 nM on dopamine D-2 receptor (setting [3]). Also, at dopamine D-2 receptor, the Ratio is on record as 106.

For the compound `FC(F)(F)c1nc2c(OCCNCc3cccs3)cccc2[nH]1` [Example 7, Thiophen-2-ylmethyl-[2-(2-trifluoromethyl-1H-benzoimidazol-4-yloxy)-ethyl]-amine], the 50% inhibitory concentration (IC50) in test [1] (setting [2]) was determined as 1.03 nM; at dopamine D-2 receptor (setting [3]), 37.4 nM. Also, at dopamine D-2 receptor, the Ratio was 36.3.

For `c1csc(CNCCOc2cccc3[nH]cnc23)c1` [Example 11, Thiophen-2-ylmethyl-[2-(1H-benzoimidazol-4-yloxy)-ethyl]-amine], the 50% inhibitory concentration (IC50) in test [1] (setting [2]) is 52.8 nM.

For `FC(F)(F)c1nc2c(OCCNCc3cccc4ccccc34)cccc2[nH]1` [Example 10, Naphthalen-1-ylmethyl-[2-(2-trifluoromethyl-1H-benzoimidazol-4-yloxy]-ethyl]-amine], the IC50 in test [1] (setting [2]) turned out to be 0.86 nM; at dopamine D-2 receptor (setting [3]), 81.5 nM. Further, the Ratio on dopamine D-2 receptor is 94.8.

Take `Cc1ccc(CNCCOc2cccc3[nH]c(C(F)(F)F)nc23)cc1` [Example 4, (4-Methyl-benzyl)-[2-(2-trifluoromethyl-1H-benzoimidazol-4-yloxy)-ethyl]-amine]: the 50% inhibitory concentration (IC50) in test [1] (setting [2]) is 0.74 nM; at dopamine D-2 receptor (setting [3]) it was 29.9 nM. In addition, on dopamine D-2 receptor, the Ratio is reported as 40.4.

`Cc1ccc(CNCCOc2cccc3[nH]c(Cc4ccccc4)nc23)cc1` [Example 5, [2-(2-Benzyl-1H-benzoimidazol-4-yloxy)-ethyl]-(4-methyl-benzyl)-amine]: the IC50 in test [1] (setting [2]) worked out at 54.8 nM; at dopamine D-2 receptor (setting [3]) it was 2160 nM. Moreover, the Ratio on dopamine D-2 receptor is reported as 39.4.

Turning to `c1ccc(CNCCOc2cccc3nc[nH]c23)cc1` [Example 1, [2-(1H-Benzoimidazol-4-yloxy)-ethyl]-benzyl-amine], the IC50 in test [1] (setting [2]) worked out at 26.7 nM.

`FC(F)(F)c1nc2c(OCCNCc3ccc(Cl)cc3)cc(Cl)cc2[nH]1` [Example 15, 4-Chloro-benzyl-[2-(6-chloro-2-trifluoromethyl-1H-benzoimidazol-4-yloxy)-ethyl]-amine]: the IC50 in test [1] (setting [2]) worked out at 7.77 nM; on dopamine D-2 receptor (setting [3]) it was 395 nM. On dopamine D-2 receptor, the Ratio is reported as 50.8.

Regarding `Cc1ccc(CNCCOc2cccc3[nH]c(C(F)(F)C(F)(F)F)nc23)cc1` [Example 6, (4-Methyl-benzyl)-{2-[2-(1,1,2,2,2-pentafluoro-ethyl)-1H-benzoimidazol-4-yloxy]-ethyl}-amine], the IC50 in test [1] (setting [2]) was found to be 1.44 nM; at dopamine D-2 receptor (setting [3]), 66.5 nM. For the same compound, the Ratio at dopamine D-2 receptor is listed as 46.2.

For the compound `FC(F)(F)c1nc2c(OCCNCc3ccccc3)cccc2[nH]1` [Example 3, Benzyl-[2-(2-trifluoromethyl-1H-benzoimidazol-4-yloxy)-ethyl]-amine], the IC50 worked out at 0.36 nM in test [1] (setting [2]) and 23.7 nM at dopamine D-2 receptor (setting [3]). Moreover, the Ratio at dopamine D-2 receptor is 65.8.
